Square brackets hold non-standard residues; d marks the D form. Peptide text beside a SMILES is read from it. Bip = N[C@@H](Cc1ccc(-c2ccccc2)cc1)C(=O)O
Legend:
[1] = target: wild-type human GLP-1 receptor (Homo sapiens, UniProt P43220); assay: Peptide induced cAMP production (radioimmunoassay) in COS-7 cells transfected with wild-type GLP-1 receptor
Procedure: COS-7 cells were transiently transfected with cDNA encoding the wild-type human GLP-1 receptor. Peptide induced cAMP production was measured by radioimmunoassay.

[2] = tested on: hyperactive human GLP-1 receptor variant; assay: Peptide induced cAMP production (radioimmunoassay) in COS-7 cells transfected with hyperactive GLP-1 receptor variant; assay type: cell-based; settings: for EC50: COS-7 cells, hyperactive human GLP-1 receptor variant
From the text: The same peptides were used as described above, with the underivatized GLP-1 (7-20) amide represented in FIG. 1B with closed squares (“−bpa”) and the GLP-1 (7-20) carboxy-terminal tethered with a small molecule, biphenylalanine, represented by open squares (“+bpa”).

[3] = tested on: Zucker diabetic fatty (ZDF) rats; assay: Preclinical trial protocol in Zucker diabetic fatty (ZDF) rats: blood glucose and islet cell mass; assay type: in vivo, rat; settings: versus saline; for blood glucose levels: 1 μg/kg/day to 100 mg/kg/day; for islet cell mass in pancreases: histology
Procedure: In this example, qualified animal models for diabetes are employed to examine the dose ranges of GLP-1 (7-20).
Treatment with GLP-1 (7-20) Animal Model. Zucker diabetic fatty (ZDF) rats are a well characterized type 2 diabetes animal model. (Suh Y H, et al. J Mol. Endocrinol. 2005 April; 34(2):299-315.)
Doses of GLP-1 (7-20) range from 1 μg/kg/day to 100 mg/kg/day.
Treatment. Cohorts are treated in 2 arms with 2-4 dose ranges of GLP-1 (7-20) amide and a placebo, at a compensated dose for animal size, metabolism and circulation. Arm 1: saline, Arm 2: GLP-1 (7-20) amide.
Study Assessment. Blood glucose levels are measured every week with a One Touch II glucose meter (Lifescan). Blood insulin levels are also measured. Rats are considered diabetic after 2 consecutive blood glucose measurements over 300 mg/dl. For histological analysis, pancreases are snap-frozen. Multiple 5-μm sections are stained with hematoxylin and eosin and scored blindly for islet cell mass as known in the art. […]
Animal Model. Zucker diabetic fatty (ZDF) rats are a well characterized type 2 diabetes animal model. (Suh Y H, et al. J Mol Endocrinol. 2005 April; 34(2):299-315.) […]
Treatment. Cohorts are treated in 6 arms with 2-4 dose ranges of each drug and a placebo, at a compensated dose for animal size, metabolism and circulation. Arm 1: saline, Arm 2: GLP-1 (7-20)−bpa; Arm 3: GLP-1 (7-20)+bpa; Arm 4: GLP-1 (7-20)−bpa plus pravastatin; Arm 5: GLP-1 (7-20)+bpa plus pravastatin; Arm 6: GLP-1 (7-20)−bpa plus GLP-1 (7-20)+bpa plus pravastatin.
Study Assessment. Blood glucose levels are measured every week with a One Touch II glucose meter (Lifescan). Blood insulin levels are also measured. Rats are considered diabetic after 2 consecutive measurements over 300 mg/dl. For histological analysis, pancreases are snap-frozen. Multiple 5-μm sections are stained with hematoxylin and eosin and scored blindly for islet cell mass as known in the art.

wild-type human GLP-1 receptor, sequence (P43220 24-463): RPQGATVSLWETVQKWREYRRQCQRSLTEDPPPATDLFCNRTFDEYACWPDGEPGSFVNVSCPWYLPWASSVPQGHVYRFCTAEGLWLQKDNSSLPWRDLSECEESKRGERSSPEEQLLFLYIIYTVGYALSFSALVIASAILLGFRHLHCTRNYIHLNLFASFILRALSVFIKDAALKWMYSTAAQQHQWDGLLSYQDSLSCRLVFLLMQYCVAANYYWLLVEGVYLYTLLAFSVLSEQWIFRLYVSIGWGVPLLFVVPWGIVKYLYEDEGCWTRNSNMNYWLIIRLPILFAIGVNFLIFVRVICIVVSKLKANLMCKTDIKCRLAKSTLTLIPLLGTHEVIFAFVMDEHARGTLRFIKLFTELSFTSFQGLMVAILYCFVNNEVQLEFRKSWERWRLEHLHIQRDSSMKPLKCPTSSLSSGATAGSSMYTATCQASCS

SMILES	affinity for the GLP-1 receptor compared with full length GLP-1 ([1]; statement referring to Example 1)	EC50 [2] [µM]	potency increase compared to the function of this peptide at the wild type receptor ([2]; hyperactive versus wild type receptor) [fold]	blood glucose levels [3]	islet cell mass in pancreases [3]	potency increase by carboxy-terminal tethering of biphenylalanine ([1]; versus underivatized GLP-1 (7-20) amide, wild-type receptor) [fold]	higher potency than GLP-1 (7-20) amide -bpa at the hyperactive receptor ([2]; hyperactive receptor, +bpa versus -bpa) [fold]
CC(C)C[C@H](NC(=O)[C@H](Cc1ccc(O)cc1)NC(=O)[C@H](CO)NC(=O)[C@H](CO)NC(=O)[C@@H](NC(=O)[C@H](CC(=O)O)NC(=O)[C@H](CO)NC(=O)[C@@H](NC(=O)[C@H](Cc1ccccc1)NC(=O)[C@@H](NC(=O)CNC(=O)[C@H](CCC(=O)O)NC(=O)[C@H](C)NC(=O)[C@@H](N)Cc1c[nH]cn1)[C@@H](C)O)[C@@H](C)O)C(C)C)C(N)=O [GLP-1 (7-20) amide] (H-HAEGTFTSDVSSYL-NH2; N-terminus assumed)	lower affinity than full length GLP-1	24	10	pronounced reduction	increased		
CC(C)C[C@H](NC(=O)[C@H](Cc1ccc(O)cc1)NC(=O)[C@H](CO)NC(=O)[C@H](CO)NC(=O)[C@@H](NC(=O)[C@H](CC(=O)O)NC(=O)[C@H](CO)NC(=O)[C@@H](NC(=O)[C@H](Cc1ccccc1)NC(=O)[C@@H](NC(=O)CNC(=O)[C@H](CCC(=O)O)NC(=O)[C@H](C)NC(=O)[C@@H](N)Cc1c[nH]cn1)[C@@H](C)O)[C@@H](C)O)C(C)C)C(=O)N[C@@H](Cc1ccc(-c2ccccc2)cc1)C(N)=O [GLP-1 (7-20)+bpa] (H-HAEGTFTSDVSSYL[Bip]-NH2; N-terminus and C-terminus assumed)		2		pronounced reduction	increased	22	10

Reference: US20100041612A1, “Fragments of the Glucagon-Like Peptide-1 and Uses Thereof” (priority 2005, published 2010)
